From patent US20230090982A1, “DRUG FOR TREATING C[…] […] […] C” (priority 2020, published 2023)
Where two headings read alike, the source gives them in different places.

How the values were obtained:
[1] = tested on: Primary human gingival fibroblasts
Method: (§1) The radioactivity of the samples was measured on a Tri-Carb 2800 TR (3-counter (PerkinElmer, USA) in an ULTIMA GOLD LLT scintillator (Perkin Elmer, USA). An aliquot of the sample (0.1 mL) was thoroughly mixed with the scintillator (0.9 mL) and the radioactivity was measured within no more than 2 h after the mixture was prepared.
(§2) Cells were cultured on the surface of 48-well polystyrene plates.
(§3) Primary human gingival fibroblasts and cervical adenocarcinoma HeLa cells were used as cell cultures. Cells were cultured in IMDM culture medium supplemented with 10% fetal bovine serum and an antibiotic (penicillin and streptomycin) in an atmosphere of 6% CO2, at 37° C.
(§4) During the experiment, the cells were placed into 48-well polystyrene plates with a well diameter of 1 cm, in the amount of 12 thousand cells per well, in triplicate for each type of sample (in 0.5 ml of culture medium). […] The cell suspension was sedimented by centrifugation at 800 g for 10 min, and aliquots were taken from the trypsin supernatant. The cell precipitation was resuspended in 220 μl of saline and 2 aliquots of 100 μl were taken to measure the radioactivity of the samples.

[2] = in water, alcohol; cited from earlier work
[3] = tested on: HeLa cervical adenocarcinoma cells
Method: as §1, §2, §3, §4

[4] = 0.074% formaldehyde diluted in culture medium, compared with 0.11% formaldehyde solution
[5] = 0.074% formaldehyde in saline, compared with incubation in 0.11% formaldehyde solution
[6] = incubation in culture medium, added formaldehyde 0.00056%
[7] = incubation in culture medium, added formaldehyde 0.0028%
[8] = incubation in culture medium, added formaldehyde 0.014%
[9] = incubation in culture medium, added formaldehyde 0.074%
[10] = incubation in culture medium, added formaldehyde 0.11%
[11] = incubation in saline, added formaldehyde 0.00056%
[12] = incubation in saline, added formaldehyde 0.0028%
[13] = incubation in saline, added formaldehyde 0.014%
[14] = incubation in saline, added formaldehyde 0.074%
[15] = incubation in saline, added formaldehyde 0.11%

C=O [formaldehyde]
activation of the production of endogenous formaldehyde [1, 4]: 20.6%
activation of the production of endogenous formaldehyde [1, 5]: 18.4%
Formaldehyde accumulation, Cells, % of what added [1, 6]: 0.25 ± 0.02 % of what added
Formaldehyde accumulation, Trypsin eluate, % of what added [1, 6]: 0.23 ± 0.03 % of what added
Formaldehyde accumulation, Cells, % of what added [1, 7]: 0.55 ± 0.07 % of what added
Formaldehyde accumulation, Trypsin eluate, % of what added [1, 7]: 0.56 ± 0.16 % of what added
Formaldehyde accumulation, Cells, % of what added [1, 8]: 1.25 ± 0.13 % of what added
Formaldehyde accumulation, Trypsin eluate, % of what added [1, 8]: 1.36 ± 0.15 % of what added
Formaldehyde accumulation, Cells, % of what added [1, 9]: 1.7 ± 0.11 % of what added
Formaldehyde accumulation, Trypsin eluate, % of what added [1, 9]: 2.33 ± 0.34 % of what added
Formaldehyde accumulation, Cells, % of what added [1, 10]: 1.35 ± 0.09 % of what added
Formaldehyde accumulation, Trypsin eluate, % of what added [1, 10]: 1.77 ± 0.16 % of what added
Formaldehyde accumulation, Cells, % of what added [1, 11]: 0.53 ± 0.04 % of what added
Formaldehyde accumulation, Trypsin eluate, % of what added [1, 11]: 0.45 ± 0.03 % of what added
Formaldehyde accumulation, Cells, % of what added [1, 12]: 1.26 ± 0.11 % of what added
Formaldehyde accumulation, Trypsin eluate, % of what added [1, 12]: 1.73 ± 0.23 % of what added
Formaldehyde accumulation, Cells, % of what added [1, 13]: 3.11 ± 0.27 % of what added
Formaldehyde accumulation, Trypsin eluate, % of what added [1, 13]: 3.41 ± 0.44 % of what added
Formaldehyde accumulation, Cells, % of what added [1, 14]: 2.12 ± 0.33 % of what added
Formaldehyde accumulation, Trypsin eluate, % of what added [1, 14]: 5.16 ± 0.85 % of what added
Formaldehyde accumulation, Cells, % of what added [1, 15]: 1.73 ± 0.23 % of what added
Formaldehyde accumulation, Trypsin eluate, % of what added [1, 15]: 3.71 ± 0.45 % of what added
solubility [2]: well dissolve in water, alcohol
activation of the production of endogenous formaldehyde [3, 4]: 30.2%
activation of the production of endogenous formaldehyde [3, 5]: 32%
Formaldehyde accumulation, Cells, % of what added [3, 6]: 0.28 ± 0.03 % of what added
Formaldehyde accumulation, Trypsin eluate, % of what added [3, 6]: 0.20 ± 0.02 % of what added
Formaldehyde accumulation, Cells, % of what added [3, 7]: 0.64 ± 0.13 % of what added
Formaldehyde accumulation, Trypsin eluate, % of what added [3, 7]: 0.45 ± 0.06 % of what added
Formaldehyde accumulation, Cells, % of what added [3, 8]: 1.52 ± 0.09 % of what added
Formaldehyde accumulation, Trypsin eluate, % of what added [3, 8]: 1.92 ± 0.11 % of what added
Formaldehyde accumulation, Cells, % of what added [3, 9]: 2.75 ± 0.18 % of what added
Formaldehyde accumulation, Trypsin eluate, % of what added [3, 9]: 2.54 ± 0.14 % of what added
Formaldehyde accumulation, Cells, % of what added [3, 10]: 1.92 ± 0.16 % of what added
Formaldehyde accumulation, Trypsin eluate, % of what added [3, 10]: 1.83 ± 0.12 % of what added
Formaldehyde accumulation, Cells, % of what added [3, 11]: 0.62 ± 0.04 % of what added
Formaldehyde accumulation, Trypsin eluate, % of what added [3, 11]: 0.57 ± 0.04 % of what added
Formaldehyde accumulation, Cells, % of what added [3, 12]: 1.34 ± 0.05 % of what added
Formaldehyde accumulation, Trypsin eluate, % of what added [3, 12]: 2.14 ± 0.08 % of what added
Formaldehyde accumulation, Cells, % of what added [3, 13]: 2.65 ± 0.11 % of what added
Formaldehyde accumulation, Trypsin eluate, % of what added [3, 13]: 3.44 ± 0.19 % of what added
Formaldehyde accumulation, Cells, % of what added [3, 14]: 2.75 ± 0.18 % of what added
Formaldehyde accumulation, Trypsin eluate, % of what added [3, 14]: 3.32 ± 0.27 % of what added
Formaldehyde accumulation, Cells, % of what added [3, 15]: 1.85 ± 0.25 % of what added
Formaldehyde accumulation, Trypsin eluate, % of what added [3, 15]: 2.41 ± 0.11 % of what added
